Results taken from PMC9098913, “In vitro reconstitution of Escherichia coli divisome activation” (Nature Communications, 2022).
Read-outs that look alike come from different tables or passages of the source.

Experiments:
[1] = Membrane off-binding rate (koff) of FtsA from FRAP
Text: We could also use the data from these bleaching experiments to quantify the membrane-binding kinetics and diffusion of membrane-bound proteins by analysing the change of the fluorescence profile during recovery.
Equimolar concentrations of Cy3- and Cy5-labelled FtsA, supplemented with 20% unlabelled FtsA were used to study FRET and FRAP. Five pre-bleach frames were acquired, followed by acceptor photobleaching of a rectangular ROI with 40% 641 nm laser power and a dwell size of 1 µs/pixel, 75% overlapping lines. The recovery of the signal or the increase in donor intensity were measured with either two frames or one frame per second.
Bleaching the acceptor dye leads to an increase in the donor intensity, which can be used to quantify the Foerster Resonance energy transfer (FRET)[48]. FRET efficiency was quantified with E%=Ipost/Ipost+Ipre⋅100 , where Ipost is the intensity of the […] and Ipre is the […]. […] To extract the contribution of both processes, we adjusted a routine recently published by Gerganova et al.[33]. In short, the code provides the contribution of both modes of recovery by analysing the shape of the fluorescence recovery profile. […] Contribution of diffusion leads to a change of the slope of the outer borders of the bleached region (S4h right). Thus, by measuring the change of the slope of the border recovery, diffusion and simple on/off binding can be distinguished. We developed “FRAPdiff”, a graphical user interface, which uses the original fit routine by David Rutkowski. It can be used directly on.tiff movies with annotated bleach regions as ImageJ ROIs. In addition, we added optional bleach correction, user selectable projection axis (x or y), and optional mirroring of the recovery profiles, if bleaching was not symmetric. The original fit routine for estimating the recovery and diffusion dynamics can be found at https://github.com/davidmrutkowski/1DReflectingDiffusion. FRAPdiff is available at 10.5281/zenodo.6400639[49] under the GPLv3 open-source license.

[2] = system: FtsZ; settings: His-tagged FtsA
Method: (§1) Co-treadmilling of FtsA with FtsZ relies on the dynamic exchange of FtsA on the membrane. […] To investigate the respective contributions of membrane binding kinetics and FtsA self-interaction on the colocalization dynamics with FtsZ, we wanted to create variants of the two FtsA proteins that are permanently attached to the membrane. […] Accordingly, in these experiments the proteins only differ in their tendency to form oligomers.
(§2) To study colocalization of His-tagged variants of FtsA, 0.5–1 µM of Cy5 labelled His-tagged FtsAs were added to the chamber, incubated for 20 min and washed 6x with reaction buffer. […] To control the density of membrane-bound FtsA, SUVs without and with Tris-NTA lipids were mixed to obtain the respective Tris-NTA concentrations. To perform FRET/FRAP experiments, equimolar concentrations of Cy3 and Cy5 labelled His-tagged FtsAs (total 0.5–1 µM) or His-SUMO-Cys were added to a chamber and treated as above. […] FRAP experiments were performed as described before.
Treadmilling dynamics, were quantified using an automated image analysis protocol previously developed by our group. To visualize colocalization of the co-treadmilling FtsZ & FtsA filaments, we used dual-colour videos obtained at an acquisition rate of one frame per 2 s. The two channels were aligned using FIJI’s 3TP align plugin. Both channels were then subjected to the image subtraction protocol and colocalization was measured as described above.

[3] = system: FtsZ; settings: His-tagged FtsA; remark: listed apart in the source
Method: as §1, §2
Time-lapse videos were first intensity-corrected and contrast-enhanced to avoid bleaching effects and simplify subsequent analysis. To remove contributions of X–Y drift, the videos were processed with the Linear Stack Alignment with SIFT plugin. Proper alignment was checked with the 3TP align plugin (J. A. Parker; Beth Israel Deaconess Medical Center, Boston). Subsequently, regions of interest (ROIs) in the center of the stacks were chosen for colocalization analysis. The Pearson’s correlation coefficient (PCC) was quantified with the Image CorrelationJ 1o plugin. To extract information about the relative ratio of FtsZ/FtsA molecules (slope of linear regression), we also used the Image CorrelationJ 1o plugin. As an output, the plugin provides a scatterplot of FtsZ vs FtsA intensities, to which we fitted a linear slope y=k⋅x+d , where k is the slope and d the offset. The slope was used as an estimate for the ratio of FtsA molecules below FtsZ filaments.

[4] = 0.60% Tris NTA, Exp. 1 (statistical analysis)
[5] = 0.60% Tris NTA, Exp. 2 (statistical analysis)
[6] = 0.80% Tris NTA, Exp. 1 (statistical analysis)
[7] = 0.80% Tris NTA, Exp. 3 (statistical analysis)
[8] = 1.00% Tris NTA, Exp. 1 (statistical analysis)
[9] = 1.00% Tris NTA, Exp. 2 (statistical analysis)
[10] = 1.00% Tris NTA, Exp. 3 (statistical analysis)
[11] = 2.00% Tris NTA, Exp. 1 (statistical analysis)
[12] = 2.00% Tris NTA, Exp. 2 (statistical analysis)
[13] = 2.00% Tris NTA, Exp. 3 (statistical analysis)
[14] = […] Tris NTA, Exp. 1 (statistical analysis)
[15] = […] Tris NTA, Exp. 2 (statistical analysis)
[16] = […] Tris NTA, Exp. 3 (statistical analysis)

Substance: FtsA WT: wild-type E. coli actin-homologue FtsA, membrane anchor of FtsZ
- Off binding rate, mean ([1]; 0.1 µM FtsA + FtsN&Z): 0.018 s
- Off binding rate, mean ([1]; 0.1 µM FtsA + FtsN): 0.032 s
- Off binding rate, mean ([1]; 0.1 µM FtsA + FtsZ): 0.0428 s
- Off binding rate, mean ([1]; 0.1 µM FtsA alone): 0.0544 s
- Off binding rate, mean ([1]; 0.2 µM FtsA + FtsN&Z): 0.0128 s
- Off binding rate, mean ([1]; 0.2 µM FtsA + FtsN): 0.026 s
- Off binding rate, mean ([1]; 0.2 µM FtsA + FtsZ): 0.0502 s
- Off binding rate, mean ([1]; 0.2 µM FtsA alone): 0.0443 s
- Off binding rate, mean ([1]; 0.4 µM FtsA + FtsN&Z): 0.0174 s
- Off binding rate, mean ([1]; 0.4 µM FtsA + FtsN): 0.0196 s
- Off binding rate, mean ([1]; 0.4 µM FtsA + FtsZ): 0.0502 s
- Off binding rate, mean ([1]; 0.4 µM FtsA alone): 0.0375 s
- membrane exchange (off-rate) ([1]; 0.4 µM FtsA, p-value 6.73 × 10^−6): 0.04 ± 0.01 s⁻¹
- Off binding rate, mean ([1]; 0.8 µM FtsA + FtsN&Z): 0.0278 s
- Off binding rate, mean ([1]; 0.8 µM FtsA + FtsN): 0.0277 s
- Off binding rate, mean ([1]; 0.8 µM FtsA + FtsZ): 0.0562 s
- Off binding rate, mean ([1]; 0.8 µM FtsA alone): 0.0396 s
- Off binding rate ([1]; Fig. S3i/S3j, 0.10 µM FtsA, replicate 1): 0.0471 s⁻¹
- Off binding rate ([1]; Fig. S3i/S3j, 0.10 µM FtsA, replicate 2): 0.024 s⁻¹
- Off binding rate ([1]; Fig. S3i/S3j, 0.10 µM FtsA, replicate 3): 0.0306 s⁻¹
- Off binding rate ([1]; Fig. S3i/S3j, 0.10 µM FtsA, replicate 4): 0.0374 s⁻¹
- Off binding rate ([1]; Fig. S3i/S3j, 0.10 µM FtsA, summary value): 0.0544 s⁻¹
- Off binding rate ([1]; Fig. S3i/S3j, 0.20 µM FtsA, summary value): 0.0443 s⁻¹
- Off binding rate ([1]; Fig. S3i/S3j, 0.40 µM FtsA, summary value): 0.0375 s⁻¹
- Off binding rate ([1]; Fig. S3i/S3j, 0.80 µM FtsA, summary value): 0.0396 s⁻¹
- Off binding rate ([1]; Fig. S3m, AMP PNP, 0.10 µM FtsA, replicate 1): 0.0505 s⁻¹
- Off binding rate ([1]; Fig. S3m, AMP PNP, 0.10 µM FtsA, replicate 2): 0.0348 s⁻¹
- Off binding rate ([1]; Fig. S3m, AMP PNP, 0.20 µM FtsA, replicate 1): 0.0493 s⁻¹
- Off binding rate ([1]; Fig. S3m, AMP PNP, 0.20 µM FtsA, replicate 2): 0.0628 s⁻¹
- Off binding rate ([1]; Fig. S3m, AMPPNP, 0.10 µM FtsA, summary value): 0.04 s⁻¹
- Off binding rate ([1]; Fig. S3m, AMPPNP, 0.20 µM FtsA, summary value): 0.06 s⁻¹
- Off binding rate ([1]; Fig. S3m, AMPPNP, 0.40 µM FtsA, summary value): 0.08 s⁻¹
- Off binding rate ([1]; Fig. S3m, AMPPNP, 0.80 µM FtsA, summary value): 0.06 s⁻¹
- Off binding rate ([1]; Fig. S3m, ATP, 0.10 µM FtsA, summary value): 0.05 s⁻¹
- Off binding rate ([1]; Fig. S3m, ATP, 0.20 µM FtsA, summary value): 0.04 s⁻¹
- Off binding rate ([1]; Fig. S3m, ATP, 0.40 µM FtsA, summary value): 0.04 s⁻¹
- Off binding rate ([1]; Fig. S3m, ATP, 0.80 µM FtsA, summary value): 0.04 s⁻¹
- Off binding rate ([1]; Fig. S3m, ATPgS, 0.10 µM FtsA, summary value): 0.0254 s⁻¹
- Off binding rate ([1]; Fig. S3m, ATPgS, 0.20 µM FtsA, summary value): 0.0233 s⁻¹
- Off binding rate ([1]; Fig. S3m, ATPgS, 0.40 µM FtsA, summary value): 0.0157 s⁻¹
- Off binding rate ([1]; Fig. S3m, ATPgS, 0.80 µM FtsA, summary value): 0.0252 s⁻¹
- membrane off-rate ([1]; in the presence of FtsZ): ~0.05 s⁻¹
- time bound relative to FtsZ monomers (times longer) ([1]; in the presence of FtsZ): 2–4 times
- Differential PCC [2, 4]: 0.51
- Differential PCC [2, 5]: 0.47
- Differential PCC, Mean ([2]; 0.60% Tris NTA, n = 2 (WT), 3 (R286W), sd 0.02, 0.057, p-value 0.67): 0.49
- Differential PCC [2, 6]: 0.49
- Differential PCC [2, 7]: 0.47
- Differential PCC, Mean ([2]; 0.80% Tris NTA, n = 3, 3, sd 0.05 (WT), 0.0749 (R286W), p-value 0.13): 0.45
- Differential PCC [2, 8]: 0.49
- Differential PCC [2, 9]: 0.28
- Differential PCC [2, 10]: 0.23
- Differential PCC, Mean ([2]; 1.00% Tris NTA, n = 3, 3, sd 0.12 (WT), 0.0377 (R286W), p-value 5.89E-02): 0.33
- Differential PCC [2, 11]: 0.06
- Differential PCC [2, 12]: 0.14
- Differential PCC [2, 13]: 0.0238
- Differential PCC, Mean ([2]; 2.00% Tris NTA, n = 3, 3, sd 0.0469 (WT), 0.04 (R286W), p-value 2.27E-03): 0.0739
- Differential PCC [2, 14]: 0.05
- Differential PCC [2, 15]: 0.035
- Differential PCC [2, 16]: 0.12
- Differential PCC, Mean ([2]; […] Tris NTA, n = 3, 3, sd 0.0371 (WT), 0.02 (R286W), p-value 5.70E-04): 0.07
- PCC [3, 4]: 0.58
- PCC [3, 5]: 0.73
- PCC, Mean ([3]; 0.60% Tris NTA, n = 2 (WT), 3 (R286W), sd 0.07, 0.08, p-value 0.39): 0.65
- PCC [3, 6]: 0.66
- PCC ([3]; 0.80% Tris NTA, Exp. 2 (statistical analysis)): 0.70
- PCC [3, 7]: 0.68
- PCC, Mean ([3]; 0.80% Tris NTA, n = 3, 3, sd 0.0141 (WT), 0.0648 (R286W), p-value 0.61): 0.68
- PCC [3, 8]: 0.53
- PCC [3, 9]: 0.60
- PCC [3, 10]: 0.73
- PCC ([3]; 1.00% Tris NTA, Exp. 4 (statistical analysis)): 0.53
- PCC, Mean ([3]; 1.00% Tris NTA, n = 4 (WT), 3 (R286W), sd 0.08, 0.0316, p-value 6.25E-02): 0.60
- PCC [3, 11]: 0.12
- PCC [3, 12]: 0.14
- PCC [3, 13]: 0.16
- PCC, Mean ([3]; 2.00% Tris NTA, n = 3, 3, sd 0.0143 (WT), 0.04 (R286W), p-value 1.59E-04): 0.14
- PCC [3, 14]: 0.16
- PCC [3, 15]: 0.0429
- PCC [3, 16]: 0.18
- PCC, Mean ([3]; […] Tris NTA, n = 3, 3, sd 0.06 (WT), 0.02 (R286W), p-value 3.86E-04): 0.13
